According to ChEMBL document CHEMBL1782017, “Synthesis and biological evaluation of new flavonoid fatty acid esters with anti-adipogenic and enhancing glucose consumption activities” (2011):

Tested on: 3T3-L1
Test: Glucose consumption in differentiated mouse 3T3L1 cells in low-glucose medium after 24 hrs by glucose-oxidase method
Type: functional, cell-based
Conditions: not given

SMILES | Activity
CCCCCCCC/C=C\CCCCCCCC(=O)Oc1ccc2c(c1)C(=O)/C(=C/c1ccc(OC)cc1)O2 | Dose-dependent effect
CCCCCCCC/C=C\CCCCCCCC(=O)Oc1ccc2c(=O)c(-c3ccc(OC)cc3)coc2c1 [OLEOYL FORMONONETIN] | Dose-dependent effect
CCCCC/C=C\C=C\CCCCCCCCC(=O)Oc1ccc2c(c1)C(=O)/C(=C/c1ccc(OC)c(OC)c1)O2 | Dose-dependent effect
CCc1ccc(CCOc2ccc(CC3SC(=O)NC3=O)cc2)nc1 (stereo not drawn) [PIOGLITAZONE] | Dose-dependent effect
CCCCCCCC/C=C\CCCCCCCC(=O)Oc1ccc2c(c1)C(=O)/C(=C/c1ccc(F)cc1)O2 | Dose-dependent effect

Tested on: 3T3-L1
Test: Glucose consumption in differentiated mouse 3T3L1 cells in high-glucose medium after 24 hrs by glucose-oxidase method
Type: functional, cell-based
Conditions: not given

SMILES | Activity
CCCCCCCC/C=C\CCCCCCCC(=O)Oc1ccc2c(c1)C(=O)/C(=C/c1ccc(OC)cc1)O2 | Dose-dependent effect
CCCCCCCC/C=C\CCCCCCCC(=O)Oc1ccc2c(=O)c(-c3ccc(OC)cc3)coc2c1 [OLEOYL FORMONONETIN] | Dose-dependent effect
CCCCC/C=C\C=C\CCCCCCCCC(=O)Oc1ccc2c(c1)C(=O)/C(=C/c1ccc(OC)c(OC)c1)O2 | Dose-dependent effect
CCc1ccc(CCOc2ccc(CC3SC(=O)NC3=O)cc2)nc1 (stereo not drawn) [PIOGLITAZONE] | Dose-dependent effect
CCCCCCCC/C=C\CCCCCCCC(=O)Oc1ccc2c(c1)C(=O)/C(=C/c1ccc(F)cc1)O2 | Dose-dependent effect

Tested on: 3T3-L1
Test: Inhibition of adipogenesis in mouse 3T3L1 cells at 100 umol/L after 8 days by Oil red O-staining
Type: functional
Conditions: 3T3-L1, 192 h

SMILES | inhibition at 100 µM [%]
CCCCC/C=C\C=C\CCCCCCCCC(=O)Oc1ccc2c(c1)C(=O)/C(=C/c1ccc(OC)cc1)O2 | 22.6
CCCCCCCC/C=C\CCCCCCCC(=O)Oc1ccc2c(c1)C(=O)/C(=C/c1ccc(OC)cc1)O2 | 11.7
CCCCCCCC/C=C\CCCCCCCC(=O)Oc1ccc2c(=O)c(-c3ccc(OC)cc3)coc2c1 [OLEOYL FORMONONETIN] | 2.52
CCCCC/C=C\C=C\CCCCCCCCC(=O)Oc1ccc2c(c1)C(=O)/C(=C/c1ccc(OC)c(OC)c1)O2 | 1.88
CCCCCCCC/C=C\CCCCCCCC(=O)Oc1ccc2c(c1)C(=O)/C(=C/c1ccc(Br)cc1)O2 | 16.6
CCCCCCCC/C=C\CCCCCCCC(=O)Oc1ccc2c(c1)C(=O)/C(=C/c1ccc(F)cc1)O2 | 9.38
CCCCC/C=C\C=C\CCCCCCCCC(=O)Oc1ccc2c(c1)C(=O)/C(=C/c1ccc(F)cc1)O2 | 0
CCCCCCCC/C=C\CCCCCCCC(=O)Oc1ccc2c(c1)C(=O)/C(=C/c1ccc(OC)c(OC)c1)O2 | 0
CCCCCCCCCCCCCCCCCC(=O)Oc1ccc2c(=O)c(Cc3ccc(OC)cc3)coc2c1 | 1.95
CCCCCCCC/C=C\CCCCCCCC(=O)Oc1ccc2c(c1)C(=O)/C(=C/c1cccc(Cl)c1)O2 | 0
CCCCCCCC/C=C\CCCCCCCC(=O)Oc1ccc2c(c1)C(=O)/C(=C/c1cccc([N+](=O)[O-])c1)O2 | 15.6
CCCCCCCC/C=C\CCCCCCCC(=O)Oc1ccc2c(c1)C(=O)/C(=C/c1cccc(OC)c1)O2 | 0
CCCCCCCCCCCCCCCCCC(=O)Oc1ccc2c(c1)O/C(=C\c1ccc(OC)cc1)C2=O | 0

Tested on: 3T3-L1
Test: Antiproliferative activity against mouse 3T3L1 cells after 48 hrs by MTT assay
Type: functional
Design: concentration or dose not given beside the values
Conditions: not given

SMILES | Activity [%]
CCCCC/C=C\C=C\CCCCCCCCC(=O)Oc1ccc2c(=O)c(Cc3ccc(OC)cc3)coc2c1 | -4.37
CCCCCCCCCCCCCCCCCC(=O)Oc1ccc2c(c1)C(=O)/C(=C/c1ccc(OC)cc1)O2 | -10.93
CCCCC/C=C\C=C\CCCCCCCCC(=O)Oc1ccc2c(c1)C(=O)/C(=C/c1cccc(Cl)c1)O2 | -11.46
CCCCCCCCCCCCCCCCCC(=O)Oc1ccc2c(c1)C(=O)/C(=C/c1ccc(OC)c(OC)c1)O2 | -3.84
CCCCC/C=C\C=C\CCCCCCCCC(=O)Oc1ccc2c(c1)C(=O)/C(=C/c1ccc(OC)cc1)O2 | -24.96
CCCCCCCCCCCCCCCC(=O)Oc1ccc2c(c1)C(=O)/C(=C/c1ccc(F)cc1)O2 | -0.47
CCCCCCCCCCCCCCCCCC(=O)Oc1ccc2c(c1)C(=O)/C(=C/c1ccc(F)cc1)O2 | -9.45
CCCCCCCC/C=C\CCCCCCCC(=O)Oc1ccc2c(c1)C(=O)/C(=C/c1ccc(OC)cc1)O2 | 17.69
CCCCCCCCCCCCCCCCCC(=O)Oc1ccc2c(c1)C(=O)/C(=C/c1cccc(Cl)c1)O2 | -0.06
C=CCCCCCCCCC(=O)Oc1ccc2c(c1)C(=O)/C(=C/c1ccc(Br)cc1)O2 | 1.25
CCCCCCCC/C=C\CCCCCCCC(=O)Oc1ccc2c(=O)c(-c3ccc(OC)cc3)coc2c1 [OLEOYL FORMONONETIN] | 10.91
CCCCC/C=C\C=C\CCCCCCCCC(=O)Oc1ccc2c(c1)C(=O)/C(=C/c1ccc(OC)c(OC)c1)O2 | 20.72
CCCCCCCCCCCCCCCC(=O)Oc1ccc2c(c1)C(=O)/C(=C/c1ccc(OC)c(OC)c1)O2 | -3.72
CCCCCCCCCCCCCCCCCC(=O)Oc1ccc2c(c1)C(=O)/C(=C/c1cccc(OC)c1)O2 | -10.94
CCCCCCCCCCCCCCCC(=O)Oc1ccc2c(c1)C(=O)/C(=C/c1ccc(Br)cc1)O2 | 1.05
C=CCCCCCCCCC(=O)Oc1ccc2c(c1)C(=O)/C(=C/c1ccc(OC)cc1)O2 | -2.09
C=CCCCCCCCCC(=O)Oc1ccc2c(c1)C(=O)/C(=C/c1cccc([N+](=O)[O-])c1)O2 | -8.37
CCCCCCCC/C=C\CCCCCCCC(=O)Oc1ccc2c(c1)C(=O)/C(=C/c1ccc(Br)cc1)O2 | -6.62

SMILES | Activity [%]
CCCCCCCC/C=C\CCCCCCCC(=O)Oc1ccc2c(c1)C(=O)/C(=C/c1ccc(F)cc1)O2 | 22.57
CCCCC/C=C\C=C\CCCCCCCCC(=O)Oc1ccc2c(c1)C(=O)/C(=C/c1ccc(F)cc1)O2 | 14.2
CCCCCCCCCCCCCCCCCC(=O)Oc1ccc2c(c1)C(=O)/C(=C/c1cccc([N+](=O)[O-])c1)O2 | -5.03
CCCCCCCC/C=C\CCCCCCCC(=O)Oc1ccc2c(c1)C(=O)/C(=C/c1ccc(OC)c(OC)c1)O2 | 12.53
CCCCCCCCCCCCCCCCCC(=O)Oc1ccc2c(=O)c(Cc3ccc(OC)cc3)coc2c1 | -31.87
C=CCCCCCCCCC(=O)Oc1ccc2c(c1)C(=O)/C(=C/c1ccc(OC)c(OC)c1)O2 | -22.17
CCCCCCCC/C=C\CCCCCCCC(=O)Oc1ccc2c(c1)C(=O)/C(=C/c1cccc(Cl)c1)O2 | 20.76
CCCCCCCCCCCCCCCC(=O)Oc1ccc2c(c1)C(=O)/C(=C/c1cccc(OC)c1)O2 | -20.26
CCCCCCCC/C=C\CCCCCCCC(=O)Oc1ccc2c(c1)C(=O)/C(=C/c1cccc([N+](=O)[O-])c1)O2 | 17.55
C=CCCCCCCCCC(=O)Oc1ccc2c(c1)O/C(=C\c1ccc(OC)cc1)C2=O | -1.39
CCCCC/C=C\C=C\CCCCCCCCC(=O)Oc1ccc2c(c1)C(=O)/C(=C/c1ccc(Br)cc1)O2 | 11.09
C=CCCCCCCCCC(=O)Oc1ccc2c(c1)C(=O)/C(=C/c1cccc(OC)c1)O2 | 0.21
CCCCCCCC/C=C\CCCCCCCC(=O)Oc1ccc2c(c1)C(=O)/C(=C/c1cccc(OC)c1)O2 | -5.41
CCCCCCCCCCCCCCCCCC(=O)Oc1ccc2c(c1)O/C(=C\c1ccc(OC)cc1)C2=O | 11.43
CCCCC/C=C\C=C\CCCCCCCCC(=O)Oc1ccc2c(c1)C(=O)/C(=C/c1cccc(OC)c1)O2 | 6.45
CCCCCCCCCCCCCCCC(=O)Oc1ccc2c(c1)C(=O)/C(=C/c1ccc(OC)cc1)O2 | 1.19
C=CCCCCCCCCC(=O)Oc1ccc2c(=O)c(Cc3ccc(OC)cc3)coc2c1 | -17.45
CCCCCCCCCCCCCCCCCC(=O)Oc1ccc2c(c1)C(=O)/C(=C/c1ccc(Br)cc1)O2 | 5.02

Tested on: 3T3-L1
Test: Glucose consumption in differentiated mouse 3T3L1 cells in low-glucose medium at 50 ug/ml after 24 hrs by glucose-oxidase method (Rvb =2.41 +/- 0.22 mmol/L)
Type: functional
Conditions: not given

SMILES | Activity [mmol/L]
CCCCCCCC/C=C\CCCCCCCC(=O)Oc1ccc2c(c1)C(=O)/C(=C/c1ccc(OC)cc1)O2 | 4.48
CCCCCCCC/C=C\CCCCCCCC(=O)Oc1ccc2c(=O)c(-c3ccc(OC)cc3)coc2c1 [OLEOYL FORMONONETIN] | 5.01
CCCCC/C=C\C=C\CCCCCCCCC(=O)Oc1ccc2c(c1)C(=O)/C(=C/c1ccc(OC)c(OC)c1)O2 | 2.99
CCc1ccc(CCOc2ccc(CC3SC(=O)NC3=O)cc2)nc1 (stereo not drawn) [PIOGLITAZONE] | 5.51
CCCCCCCC/C=C\CCCCCCCC(=O)Oc1ccc2c(c1)C(=O)/C(=C/c1ccc(F)cc1)O2 | 3.81
CCCCCCCC/C=C\CCCCCCCC(=O)Oc1ccc2c(c1)C(=O)/C(=C/c1cccc([N+](=O)[O-])c1)O2 | 2.93

Tested on: 3T3-L1
Test: Glucose consumption in differentiated mouse 3T3L1 cells in low-glucose medium at 100 ug/ml after 24 hrs by glucose-oxidase method (Rvb =2.35 +/- 0.19 mmol/L)
Type: functional
Conditions: not given

SMILES | Activity [mmol/L]
CCCCCCCC/C=C\CCCCCCCC(=O)Oc1ccc2c(c1)C(=O)/C(=C/c1ccc(OC)cc1)O2 | 5.05
CCCCCCCC/C=C\CCCCCCCC(=O)Oc1ccc2c(=O)c(-c3ccc(OC)cc3)coc2c1 [OLEOYL FORMONONETIN] | 6.95
CCCCC/C=C\C=C\CCCCCCCCC(=O)Oc1ccc2c(c1)C(=O)/C(=C/c1ccc(OC)c(OC)c1)O2 | 3.85
CCc1ccc(CCOc2ccc(CC3SC(=O)NC3=O)cc2)nc1 (stereo not drawn) [PIOGLITAZONE] | 6.75
CCCCCCCC/C=C\CCCCCCCC(=O)Oc1ccc2c(c1)C(=O)/C(=C/c1ccc(F)cc1)O2 | 4.35
CCCCCCCC/C=C\CCCCCCCC(=O)Oc1ccc2c(c1)C(=O)/C(=C/c1cccc([N+](=O)[O-])c1)O2 | 3.47

Tested on: 3T3-L1
Test: Glucose consumption in differentiated mouse 3T3L1 cells in high-glucose medium at 50 ug/ml after 24 hrs by glucose-oxidase method (Rvb =3.06 +/- 0.29 mmol/L)
Type: functional
Conditions: not given

SMILES | Activity [mmol/L]
CCCCCCCC/C=C\CCCCCCCC(=O)Oc1ccc2c(c1)C(=O)/C(=C/c1ccc(OC)cc1)O2 | 4.91
CCCCCCCC/C=C\CCCCCCCC(=O)Oc1ccc2c(=O)c(-c3ccc(OC)cc3)coc2c1 [OLEOYL FORMONONETIN] | 6.52
CCCCC/C=C\C=C\CCCCCCCCC(=O)Oc1ccc2c(c1)C(=O)/C(=C/c1ccc(OC)c(OC)c1)O2 | 3.71
CCc1ccc(CCOc2ccc(CC3SC(=O)NC3=O)cc2)nc1 (stereo not drawn) [PIOGLITAZONE] | 7.36
CCCCCCCC/C=C\CCCCCCCC(=O)Oc1ccc2c(c1)C(=O)/C(=C/c1ccc(F)cc1)O2 | 4.07
CCCCCCCC/C=C\CCCCCCCC(=O)Oc1ccc2c(c1)C(=O)/C(=C/c1cccc([N+](=O)[O-])c1)O2 | 3.35

Tested on: 3T3-L1
Test: Glucose consumption in differentiated mouse 3T3L1 cells in high-glucose medium at 100 ug/ml after 24 hrs by glucose-oxidase method (Rvb =3.12 +/- 0.32 mmol/L)
Type: functional
Conditions: not given

SMILES | Activity [mmol/L]
CCCCCCCC/C=C\CCCCCCCC(=O)Oc1ccc2c(c1)C(=O)/C(=C/c1ccc(OC)cc1)O2 | 5.67
CCCCCCCC/C=C\CCCCCCCC(=O)Oc1ccc2c(=O)c(-c3ccc(OC)cc3)coc2c1 [OLEOYL FORMONONETIN] | 7.49
CCCCC/C=C\C=C\CCCCCCCCC(=O)Oc1ccc2c(c1)C(=O)/C(=C/c1ccc(OC)c(OC)c1)O2 | 5.08
CCc1ccc(CCOc2ccc(CC3SC(=O)NC3=O)cc2)nc1 (stereo not drawn) [PIOGLITAZONE] | 8.15
CCCCCCCC/C=C\CCCCCCCC(=O)Oc1ccc2c(c1)C(=O)/C(=C/c1ccc(F)cc1)O2 | 4.82
CCCCCCCC/C=C\CCCCCCCC(=O)Oc1ccc2c(c1)C(=O)/C(=C/c1cccc([N+](=O)[O-])c1)O2 | 3.96
